In this experiment the target is T1, histone deacetylase, subtype 1 (HDAC1) (Homo sapiens, UniProt Q13547).
T1 construct: Flag; made in house
The experiment can be described thus: HDAC1-Flag assay (in vitro deacetylation assay). The experiment is classed as biochemical. As to conditions: concentration for 50% inhibition of deacetylation, substrate at Km, unit inferred, text gives nm, read-out: HDAC Inhibition. The protocol:
Novel compounds were tested for their ability to inhibit histone deacetylase, subtype 1 (HDAC1) using an in vitro deacetylation assay. The enzyme source for this assay was an epitope-tagged human HDAC1 complex immuno-purified from stably expressing mammalian cells. The substrate consisted of a commercial product containing an acetylated lysine side chain (BIOMOL Research Laboratories, Inc., Plymouth Meeting, Pa.). Upon deacetylation of the substrate by incubation with the purified HDAC1 complex, a fluorophore is produced that is directly proportional to the level of deacetylation.

The mark [1] stands for this setting: Table 1, benzothiophene backbone.

Structures are written as SMILES. Read-outs that look alike come from different tables or passages of the source.

T1 sequence (Q13547 whole entry): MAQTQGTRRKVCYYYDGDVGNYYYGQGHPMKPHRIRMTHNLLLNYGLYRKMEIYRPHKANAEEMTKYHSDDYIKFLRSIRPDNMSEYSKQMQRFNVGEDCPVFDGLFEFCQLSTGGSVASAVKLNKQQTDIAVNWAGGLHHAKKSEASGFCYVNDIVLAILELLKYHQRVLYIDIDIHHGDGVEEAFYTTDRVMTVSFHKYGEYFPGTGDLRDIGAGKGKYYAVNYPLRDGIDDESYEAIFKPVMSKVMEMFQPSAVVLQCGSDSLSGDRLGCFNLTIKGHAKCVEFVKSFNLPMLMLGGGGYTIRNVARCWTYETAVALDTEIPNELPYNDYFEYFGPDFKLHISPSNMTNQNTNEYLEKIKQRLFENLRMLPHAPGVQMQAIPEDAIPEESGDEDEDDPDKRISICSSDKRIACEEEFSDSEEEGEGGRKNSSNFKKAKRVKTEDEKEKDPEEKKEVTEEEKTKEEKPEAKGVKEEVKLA

In the case of `O=C(Cc1ccccn1)Nc1ccc2cc(C(=O)NO)sc2c1` [Compound 109], under setting [1], the IC50 was determined as 59 ± 15.5 nM.
As to `O=C(NCc1ccccc1)c1ccc2sc(C(=O)NO)cc2c1` [Compound 111], under setting [1], the IC50 was determined as 76 ± 21.2 nM.
In the case of `O=C(NCCCc1ccccc1)c1ccc2sc(C(=O)NO)cc2c1` [Compound 112], the IC50 under setting [1] was found to be 74.5 ± 7.7 nM.
Still for that read-out and setting: the figure for `CN(O)C(=O)c1cc2ccc(N(C)C(=O)Cc3ccccc3)cc2s1` [Compound 113] is 30775 ± 7 nM; for `CC(=O)N1CCN(CC(=O)Nc2ccc3cc(C(=O)NO)sc3c2)CC1` [Compound 114] it is 150 ± 12.7 nM.
For the compound `O=C(CN1CCOCC1)Nc1ccc2cc(C(=O)NO)sc2c1` [Compound 116], the IC50 under setting [1] worked out at 84 ± 5.6 nM.
As for `O=C(CN(CCc1ccccc1)Cc1ccccc1)Nc1ccc2cc(C(=O)NO)sc2c1` [Compound 117], the IC50 under setting [1] is 206 ± 50.9 nM.
Still for that read-out and setting: the figure for `CC(C)(C)OC(=O)CN(CC(=O)Nc1ccc2cc(C(=O)NO)sc2c1)CC(=O)OC(C)(C)C` [Compound 118] is 236 ± 28.9 nM; for `O=C(CN1CCN(c2cccc(Cl)c2)CC1)Nc1ccc2cc(C(=O)NO)sc2c1` [Compound 120] it is 97 ± 21 nM.
For `O=C(CN1CCCN(C(=O)OCc2ccccc2)CC1)Nc1ccc2cc(C(=O)NO)sc2c1` [Compound 121], the IC50 under setting [1] stood at 184 ± 58.2 nM.
With `CCOC(=O)N1CCN(CC(=O)Nc2ccc3cc(C(=O)NO)sc3c2)CC1` [Compound 122], the IC50 under setting [1] was 163 ± 35.2 nM.
Consider `COc1ccc(N2CCN(CC(=O)Nc3ccc4cc(C(=O)NO)sc4c3)CC2)cc1` [Compound 124], for which, under setting [1], the IC50 was determined as 177 ± 16 nM.
On the same count and under the same terms, to `O=C(NO)c1cc2ccc(NC(=O)C3(c4ccc(Cl)cc4)CC3)cc2s1` [Compound 125] belongs 164 ± 1.4 nM; to `O=C(NCCc1cc2ccccc2[nH]1)c1ccc2cc(C(=O)NO)sc2c1` [Compound 128], 144 ± 63.7 nM; to `O=C(NC1CCN(Cc2ccccc2)CC1)c1ccc2cc(C(=O)NO)sc2c1` [Compound 129], 261 ± 89.2 nM.
For the compound `O=C(NCC(c1ccccc1)c1ccccc1)c1ccc2cc(C(=O)NO)sc2c1` [Compound 130], the IC50 under setting [1] is 162 ± 40.3 nM.
With `O=C(NC(Cc1ccccc1)c1ccccc1)c1ccc2cc(C(=O)NO)sc2c1` (centres unmarked) [Compound 131], the IC50 under setting [1] was 223 ± 11.3 nM.
Same read-out and setting: the figure for `O=C(NC(c1ccccc1)c1ccccc1)c1ccc2cc(C(=O)NO)sc2c1` [Compound 132] is 284 ± 45.2 nM; for `O=C(NCc1nc2ccccc2[nH]1)c1ccc2cc(C(=O)NO)sc2c1` [Compound 133] it is 30.3 ± 6.5 nM; for `O=C(NCCc1ccccn1)c1ccc2cc(C(=O)NO)sc2c1` [Compound 134] it is 146 ± 10.3 nM.
For `O=C(NO)c1cc2ccc(C(=O)N3CCCCC3)cc2s1` [Compound 136], the IC50 under setting [1] was determined as 424 ± 72.7 nM.
Regarding `O=C(Nc1ccccc1)c1ccc2cc(C(=O)NO)sc2c1` [Compound 137], the IC50 under setting [1] stood at 615 ± 207 nM.
On the same count and under the same terms, to `O=C(NC1CCc2ccccc21)c1ccc2cc(C(=O)NO)sc2c1` (centres unmarked) [Compound 138] belongs 922 ± 174 nM.
On the same count and under the same terms, to `O=C(NO)c1cc2ccc(C(=O)N3CCN(c4ccccc4)CC3)cc2s1` [Compound 139] belongs 176 ± 13.4 nM; to `O=C(NO)c1cc2cc(CNC(c3ccccc3)c3ccccc3)ccc2s1` [Compound 140], 869 ± 108 nM; to `O=C(NO)c1cc2cc(CNCc3nc4ccccc4[nH]3)ccc2s1` [Compound 141], 116 ± 3.5 nM.
Still for that read-out and setting: the figure for `COc1ccc(CCNCc2ccc3sc(C(=O)NO)cc3c2)cc1OC` [Compound 143] is 325 ± 57.4 nM.
Take `O=C(NO)c1cc2cc(CNCCc3ccc(OCc4ccccc4)c(OCc4ccccc4)c3)ccc2s1` [Compound 144]: the IC50 under setting [1] stood at 1580 ± 334 nM.
The same measure, in the same setting: the figure for `O=C(NO)c1cc2cc(CNCc3ccccc3Cl)ccc2s1` [Compound 149] is 96.5 ± 34.4 nM; for `O=C(NO)c1cc2cc(CNCc3cccc(Cl)c3)ccc2s1` [Compound 150] it is 144.5 ± 0.7 nM; for `O=C(NO)c1cc2cc(CNCC(c3ccccc3)c3ccccc3)ccc2s1` [Compound 152] it is 415 ± 91.6 nM.
Same read-out and setting: to `O=C(NO)c1cc2ccc(C(=O)N3CCN(c4ccc(Cl)cc4)CC3)cc2s1` [Compound 158] belongs 441 ± 98.2 nM.
Same read-out and setting: to `CC(C)(C(=O)Nc1ccc2cc(C(=O)NO)sc2c1)c1ccc(Cl)cc1` [Compound 159] belongs 536 ± 168 nM; to `O=C(NCCCc1ccccc1)c1ccc2cc(C(=O)NO)sc2c1` [Compound 160], 90 ± 11.3 nM; to `O=C(NCCc1ccccc1)c1ccc2cc(C(=O)NO)sc2c1` [Compound 161], 58 nM.
Regarding `O=C(NO)c1cc2cc(CNCCN3CCOCC3)ccc2s1` [Compound 163], the IC50 under setting [1] was determined as 734 ± 34.6 nM.
On the same count and under the same terms, the figure for `O=C(NO)c1cc2cc(CNc3cccc(OCc4ccccc4)c3)ccc2s1` [Compound 165] is 269 ± 63.6 nM; for `COc1ccccc1CNC(=O)c1ccc2sc(C(=O)NO)cc2c1` [Compound 166] it is 90 ± 5.6 nM.
Turning to `COc1cccc(CNC(=O)c2ccc3sc(C(=O)NO)cc3c2)c1` [Compound 167], the IC50 under setting [1] was 94 ± 5.6 nM.
On the same count and under the same terms, to `COc1ccc(CNC(=O)c2ccc3sc(C(=O)NO)cc3c2)cc1` [Compound 168] belongs 36 ± 1.4 nM; to `O=C(NCc1ccccc1Cl)c1ccc2sc(C(=O)NO)cc2c1` [Compound 169], 66.5 ± 2.1 nM.
As for `O=C(NCc1cccc(Cl)c1)c1ccc2sc(C(=O)NO)cc2c1` [Compound 170], under setting [1], the IC50 was 88 nM.
Still for that read-out and setting: the figure for `O=C(NCc1ccc(Cl)cc1)c1ccc2sc(C(=O)NO)cc2c1` [Compound 171] is 63.5 ± 4.9 nM; for `O=C(NC1CCc2ccccc21)c1ccc2sc(C(=O)NO)cc2c1` (centres unmarked) [Compound 172] it is 1360 ± 47.3 nM; for `O=C(NCCc1c[nH]c2ccccc12)c1ccc2sc(C(=O)NO)cc2c1` [Compound 173] it is 129 ± 18.3 nM.
On the same count and under the same terms, to `O=C(NCCC(c1ccccc1)c1ccccc1)c1ccc2sc(C(=O)NO)cc2c1` [Compound 174] belongs 428 ± 102 nM; to `O=C(NCCCCc1ccccc1)c1ccc2sc(C(=O)NO)cc2c1` [Compound 175], 154 ± 8.4 nM; to `O=C(NCc1ccc(Cl)cc1)c1ccc2cc(C(=O)NO)sc2c1` [Compound 176], 126 ± 31.1 nM.
The same measure, in the same setting: the figure for `O=C(CN(CC(=O)Nc1ccccc1)C(=O)c1ccc2sc(C(=O)NO)cc2c1)Nc1ccccc1` [Compound 179] is 102 ± 26.2 nM; for `O=C(Nc1cccc2cccnc12)c1ccc2cc(C(=O)NO)sc2c1` [Compound 182] it is 1070 ± 21.9 nM.
`O=C(Nc1nc(-c2ccccc2)cs1)c1ccc2cc(C(=O)NO)sc2c1` [Compound 183]: the IC50 under setting [1] stood at 4140 ± 1890 nM.
As for `O=C(NO)c1cc2ccc(COCc3ccccc3)cc2s1` [Compound 184], the IC50 under setting [1] stood at 199 ± 35.3 nM.
On to `O=C(NO)c1cc2ccc(C(=O)N3CCC(Cc4ccccc4)CC3)cc2s1` [Compound 190], for which the IC50 under setting [1] was 170 ± 38.8 nM.
Take `O=C(NO)c1cc2ccc(C(=O)N3CCN(Cc4ccccc4)CC3)cc2s1` [Compound 191]: under setting [1], the IC50 was determined as 453 ± 114 nM.
On the same count and under the same terms, to `O=C(NO)c1cc2ccc(CNCc3ccccc3)cc2s1` [Compound 192] belongs 53 nM.
As for `COc1ccc(CN(Cc2ccc3cc(C(=O)NO)sc3c2)C2CCCCC2)cc1` [Compound 193], under setting [1], the IC50 turned out to be 99 nM.
Still for that read-out and setting: the figure for `COc1ccc(CN(Cc2ccc3cc(C(=O)NO)sc3c2)C2CCOCC2)cc1` [Compound 194] is 76 nM.
`O=C(CCc1ccc(C(=O)NO)s1)Nc1cccc(OCc2ccccc2)c1` [Compound 195]: the IC50 (Table 2, thiophene backbone) worked out at 127 ± 11.3 nM.
Regarding `O=C(CCc1ccc(C(=O)NO)s1)NCC1CCCCC1` [Compound 196], the IC50 (Table 2, thiophene backbone) amounted to 1450 ± 111 nM.

The values are drawn from US7935724B2, “Thiophene and benzothiophene hydroxamic acid derivatives” (Merck HDAC Research, LLC, priority 2003, dated 2011).
